Experimental data: patent US20090155784A1, “ASSESSMENT OF ASTHMA AND ALLERGEN-DEPENDENT GENE EXPRESSION” (Wyeth, priority 2007, published 2009)

Test system: PBMCs from healthy volunteers
Assay: HG-U133A baseline gene expression in PBMCs of healthy volunteers (HV), cPLA2 inhibitor in the absence of allergen (no AG)
Assay type: cell-based, human
Description: PBMCs were stimulated in vitro with a cocktail containing 4 different allergens from house dust mite, ragweed and cat. Recombinant allergens, Der p1, Der f2, Fel d1 (Indoor Biotech, Charlottesville, Va.) and natural ragweed allergen (Allergy Lab, Seattle, Wash.) were selected and screened for endotoxin contamination (LAL Endotoxin Test, Catalog #HIT302, sensitivity, 0.0001 Eu/ml, Cell Sciences, Canton, Mass.). The sensitivity of the subjects was unknown but the allergens were chosen based on the estimate that 80% of allergic individuals are believed to react to one or more of these allergens. Culture medium contained RPMI-1640 (Sigma) with 10% heat inactivated FCS (Sigma St. Louis, Mo.) and 100 unit/mL Penicillin and […] Streptomycin and 0.292 mg/mL Glutamine (GIBCO RL Invitrogen, Carlsbad, Calif.). The final allergen cocktail concentrations in culture medium were: Der p1 and Der f2 (dust mite), 1 mg/ml; Fel d1 (cat), 1.25 mg/ml; ragweed, 125 mg/ml. The total level of endotoxin contamination in culture medium was 0.057 Eu/ml. The cPLA2 inhibitor 4-{3-[1-benzhydryl-5-chloro-2-(2-{[(2,6-dimethylbenzyl)sulfonyl]amino}ethyl)-1H-indol-3-yl]propyl}benzoic acid was used at a concentration of 0.3 μM/ml. Zileuton, a 5-lipoxygenase inhibitor, was added at a concentration of 5 μM. The inhibitory activity of both the cPLA2 inhibitor and Zileuton samples were verified in a human whole blood assay. After 6 days in culture approximately 200 μL of supernatant was removed using an 8-channel pipettor without disturbing the cell pellet and placed into a collection plate for cytokine ELISA assays. To the remaining cell pellet 100 μL of RLT lysis buffer containing 1% beta-mercaptoethanol was added and snap frozen for RNA purification.
RNA was purified using QIA shredders and Rneasy mini kits (Qiagen, Valencia, Calif.). PBMC pellets frozen in RLT lysis buffer containing 1% β-mercaptoethanol were thawed and processed for total RNA isolation using the QIA shredder and RNeasy mini kit. A phenol:chloroform extraction was then performed, and the RNA was repurified using the RNeasy mini kit reagents. Eluted RNA was quantified using a Spectramax96 well plate UV reader (Molecular Devices, Sunnyvale, Calif., USA) monitoring A260/280 OD values. The quality of each RNA sample was assessed by capillary electrophoresis alongside an RNA molecular weight ladder on the Agilent 2100 bioanalyzer (Agilent Technologies, Palo Alto, Calif., USA). RNA samples were assigned quality values of intact (distinct 18S and 28S bands); partially degraded (discernible 18S and 28S bands with presence of low molecular weight bands) or completely degraded (no discernible 18S and 28S bands).
Labeled targets for oligonucleotide arrays were prepared using a modification of the procedure described by Lockhart et al. (Lockhart (1996) Nat. Biotechnol. 14:1675-80). Labeled targets were hybridized to the HG-U133A Affymetrix GeneChip Array as described in the Affymetrix technical manual. Eleven biotinylated control transcripts ranging in abundance from 3 parts per million (ppm) to 100 ppm were spiked into each sample to function as a standard curve (Hill (2001) Genome Biol. 2:RESEARCH0055). GeneChip MAS 5.0 software was used to evaluate the hybridization intensity, compute the signal value for each probe set and make an absent/present call.
GeneChips were required to pass the pre-set quality control criteria that the RNA quality metric required a 5′:3′ ratio. Two asthma subjects were excluded from the study due to failure to meet the RNA quality metric and 2 GeneChips from the group treated with cPLA2a inhibitor were excluded for the same reason. The signal value for each probe set was converted into a frequency value representative of the number of transcripts present in 10^6 transcripts by reference to the standard curve (Hill (2001) Genome Biol. 2:RESEARCH0055). […]

[1] = healthy population, no allergen

**Q.** For `Cc1cccc(C)c1CS(=O)(=O)NCCc1c(CCCc2ccc(C(=O)O)cc2)c2cc(Cl)ccc2n1C(c1ccccc1)c1ccccc1` [cPLA2 inhibitor, 4-{3-[1-benzhydryl-5-chloro-2-(2-{[(2,6-dimethylbenzyl)sulfonyl]amino}ethyl)-1H-indol-3-yl]propyl}benzoic acid], which “probes significantly downregulated in the presence of cPLA2 inhibition” value [1] is on record?
**A.** 43 probes

**Q.** And the “probes significantly upregulated in the presence of cPLA2 inhibition” value [1]?
**A.** 36 probes

**Q.** What about the “Fold Change cPLA2 inhibitor vs. no AG HV” value (probeset 44673_at, gene SN) of the same molecule?
**A.** 1.425 fold

**Q.** And the “Fold Change cPLA2 inhibitor vs. no AG HV” value (probeset 58696_at, gene RRP41)?
**A.** 1.202 fold

**Q.** What about the “Fold Change cPLA2 inhibitor vs. no AG HV” value (probeset 200886_s_at, gene PGAM1) of the same molecule?
**A.** −1.153 fold

**Q.** What about the “Fold Change cPLA2 inhibitor vs. no AG HV” value (probeset 200887_s_at, gene STAT1) of the same molecule?
**A.** 1.158 fold

**Q.** What about the “Fold Change cPLA2 inhibitor vs. no AG HV” value (probeset 200923_at, gene LGALS3BP) of the same molecule?
**A.** 1.268 fold

**Q.** And the “Fold Change cPLA2 inhibitor vs. no AG HV” value (probeset 200976_s_at, gene TAX1BP1)?
**A.** 1.159 fold

**Q.** What about the “Fold Change cPLA2 inhibitor vs. no AG HV” value (probeset 201061_s_at, gene STOM) of the same molecule?
**A.** 1.242 fold

**Q.** What about the “Fold Change cPLA2 inhibitor vs. no AG HV” value (probeset 201090_x_at, gene K-ALPHA-1) of the same molecule?
**A.** 1.122 fold

**Q.** And the “Fold Change cPLA2 inhibitor vs. no AG HV” value (probeset 201118_at, gene PGD)?
**A.** 1.22 fold

**Q.** What about the “Fold Change cPLA2 inhibitor vs. no AG HV” value (probeset 201298_s_at, gene C2ORF6) of the same molecule?
**A.** 1.106 fold

**Q.** What about the “Fold Change cPLA2 inhibitor vs. no AG HV” value (probeset 201463_s_at, gene TALDO1) of the same molecule?
**A.** 1.153 fold

**Q.** And the “Fold Change cPLA2 inhibitor vs. no AG HV” value (probeset 201649_at, gene UBE2L6)?
**A.** 1.19 fold

**Q.** What about the “Fold Change cPLA2 inhibitor vs. no AG HV” value (probeset 201785_at, gene RNASE1) of the same molecule?
**A.** −3.602 fold

**Q.** What about the “Fold Change cPLA2 inhibitor vs. no AG HV” value (probeset 201945_at, gene FURIN) of the same molecule?
**A.** 1.348 fold

**Q.** And the “Fold Change cPLA2 inhibitor vs. no AG HV” value (probeset 202068_s_at, gene LDLR)?
**A.** 1.388 fold

**Q.** And the “Fold Change cPLA2 inhibitor vs. no AG HV” value (probeset 202193_at, gene LIMK2)?
**A.** 1.457 fold

**Q.** What about the “Fold Change cPLA2 inhibitor vs. no AG HV” value (probeset 202245_at, gene LSS) of the same molecule?
**A.** 1.264 fold

**Q.** And the “Fold Change cPLA2 inhibitor vs. no AG HV” value (probeset 202269_x_at, gene GBP1)?
**A.** 1.475 fold

**Q.** And the “Fold Change cPLA2 inhibitor vs. no AG HV” value (probeset 202307_s_at, gene TAP1)?
**A.** 1.313 fold

**Q.** What about the “Fold Change cPLA2 inhibitor vs. no AG HV” value (probeset 202308_at, gene SREBF1) of the same molecule?
**A.** 1.436 fold

**Q.** And the “Fold Change cPLA2 inhibitor vs. no AG HV” value (probeset 202510_s_at, gene TNFAIP2)?
**A.** 1.355 fold

**Q.** What about the “Fold Change cPLA2 inhibitor vs. no AG HV” value (probeset 202531_at, gene IRF1) of the same molecule?
**A.** 1.259 fold

**Q.** And the “Fold Change cPLA2 inhibitor vs. no AG HV” value (probeset 202626_s_at, gene LYN)?
**A.** 1.54 fold

**Q.** What about the “Fold Change cPLA2 inhibitor vs. no AG HV” value (probeset 202841_x_at, gene OGFR) of the same molecule?
**A.** 1.239 fold

**Q.** What about the “Fold Change cPLA2 inhibitor vs. no AG HV” value (probeset 202847_at, gene PCK2) of the same molecule?
**A.** 1.344 fold

**Q.** And the “Fold Change cPLA2 inhibitor vs. no AG HV” value (probeset 202859_x_at, gene IL8)?
**A.** 2.42 fold

**Q.** What about the “Fold Change cPLA2 inhibitor vs. no AG HV” value (probeset 202917_s_at, gene S100A8) of the same molecule?
**A.** 1.662 fold

**Q.** What about the “Fold Change cPLA2 inhibitor vs. no AG HV” value (probeset 203922_s_at, gene CYBB) of the same molecule?
**A.** 1.52 fold

**Q.** And the “Fold Change cPLA2 inhibitor vs. no AG HV” value (probeset 203923_s_at, gene CYBB)?
**A.** 1.214 fold

**Q.** And the “Fold Change cPLA2 inhibitor vs. no AG HV” value (probeset 204034_at, gene ETHE1)?
**A.** 1.212 fold

**Q.** What about the “Fold Change cPLA2 inhibitor vs. no AG HV” value (probeset 204224_s_at, gene GCH1) of the same molecule?
**A.** 1.48 fold

**Q.** And the “Fold Change cPLA2 inhibitor vs. no AG HV” value (probeset 204326_x_at, gene UNK_NM_002450)?
**A.** 2.024 fold

**Q.** And the “Fold Change cPLA2 inhibitor vs. no AG HV” value (probeset 204745_x_at, gene MT1G)?
**A.** 2.215 fold

**Q.** What about the “Fold Change cPLA2 inhibitor vs. no AG HV” value (probeset 204858_s_at, gene ECGF1) of the same molecule?
**A.** 1.292 fold

**Q.** What about the “Fold Change cPLA2 inhibitor vs. no AG HV” value (probeset 204929_s_at, gene VAMP5) of the same molecule?
**A.** 1.472 fold

**Q.** And the “Fold Change cPLA2 inhibitor vs. no AG HV” value (probeset 205322_s_at, gene MTF1)?
**A.** 1.553 fold

**Q.** And the “Fold Change cPLA2 inhibitor vs. no AG HV” value (probeset 205872_x_at, gene UNK_NM_022359)?
**A.** 1.629 fold

**Q.** And the “Fold Change cPLA2 inhibitor vs. no AG HV” value (probeset 205992_s_at, gene IL15)?
**A.** 1.522 fold

**Q.** And the “Fold Change cPLA2 inhibitor vs. no AG HV” value (probeset 206025_s_at, gene TNFAIP6)?
**A.** 1.671 fold

**Q.** And the “Fold Change cPLA2 inhibitor vs. no AG HV” value (probeset 206026_s_at, gene TNFAIP6)?
**A.** 1.866 fold

**Q.** And the “Fold Change cPLA2 inhibitor vs. no AG HV” value (probeset 206637_at, gene GPR105)?
**A.** 1.797 fold

**Q.** And the “Fold Change cPLA2 inhibitor vs. no AG HV” value (probeset 207091_at, gene P2RX7)?
**A.** 1.272 fold

**Q.** What about the “Fold Change cPLA2 inhibitor vs. no AG HV” value (probeset 207277_at, gene CD209) of the same molecule?
**A.** 1.574 fold

**Q.** What about the “Fold Change cPLA2 inhibitor vs. no AG HV” value (probeset 207533_at, gene CCL1) of the same molecule?
**A.** 2.229 fold

**Q.** And the “Fold Change cPLA2 inhibitor vs. no AG HV” value (probeset 207697_x_at, gene LILRB2)?
**A.** 1.484 fold

**Q.** And the “Fold Change cPLA2 inhibitor vs. no AG HV” value (probeset 208071_s_at, gene LAIR1)?
**A.** 1.82 fold

**Q.** And the “Fold Change cPLA2 inhibitor vs. no AG HV” value (probeset 208373_s_at, gene P2RY6)?
**A.** 1.593 fold

**Q.** What about the “Fold Change cPLA2 inhibitor vs. no AG HV” value (probeset 208671_at, gene TDE2) of the same molecule?
**A.** −1.137 fold

**Q.** What about the “Fold Change cPLA2 inhibitor vs. no AG HV” value (probeset 208699_x_at, gene TKT) of the same molecule?
**A.** 1.243 fold
